Among the data in patent US11524960B2, “Heterobicyclic inhibitors of MAT2A and methods of use for treating cancer” (AGIOS PHARMACEUTICALS, INC., priority 2018, dated 2022) are IC50 values, retold here.

pIC50: −log10 of the molar value.

The target of the experiment is T1, MAT2A homodimer (Homo sapiens, UniProt P31153).
T1 construct: inferred from Ni sepharose purification and imidazole elution; made in house; host or cells: Sf9 insect cells, recombinant baculovirus (Bac to Bac, pFASTBAC1)
T1 sequence (P31153 whole entry): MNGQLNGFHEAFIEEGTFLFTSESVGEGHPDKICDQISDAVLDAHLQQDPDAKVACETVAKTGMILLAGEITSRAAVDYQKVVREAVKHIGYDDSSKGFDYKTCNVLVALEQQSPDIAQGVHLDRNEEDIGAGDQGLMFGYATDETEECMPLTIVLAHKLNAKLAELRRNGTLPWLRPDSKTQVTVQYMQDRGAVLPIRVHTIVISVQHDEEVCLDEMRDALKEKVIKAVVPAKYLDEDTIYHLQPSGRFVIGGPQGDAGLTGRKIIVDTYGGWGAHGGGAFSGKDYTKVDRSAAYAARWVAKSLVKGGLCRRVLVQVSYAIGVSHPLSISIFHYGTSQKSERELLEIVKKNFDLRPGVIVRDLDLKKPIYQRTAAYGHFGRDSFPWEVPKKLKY
Kind of experiment: Biochemical assay: inhibition of MAT2A (phosphate release, PiColorLock Gold). Conditions: MAT2A IC50 score; read-out: Enzyme Inhibition (Example 275). The method, then: Mat2A protein was expressed by recombinant baculovirus in SF9 infected cells using the Bac to Bac system cloned into the pFASTBAC1 vector (Invitrogen, Carlsbad, Calif.). Recombinant MAT2A was isolated from the cell lysate of 150 g of infected cells using HP Ni sepharose column chromatography. Recombinant MAT2A homodimer was eluted with 250 and 500 mM imidazole, and fractions containing MAT2A were identified by sodium dodecyl sulfate polyacrylamide gel electrophoresis and pooled.
For determination of the inhibitory potency of compounds against the MAT2A homodimer, protein was diluted to […] in assay buffer (50 mM Tris, pH 8.0, 50 mM KCl, 15 mM MgCl2, 0.3 mM EDTA, 0.005% [w/v] bovine serum albumin [BSA]). Test compound was prepared in 100% dimethyl sulfoxide (DMSO) at 50× the desired final concentration. […] of compound dilution was added to 40 μL of enzyme dilution and the mixture was allowed to equilibrate for 60 minutes at 25° C. The enzymatic assay was initiated by the addition of 10 μL of substrate mix (500 μM ATP, pH 7.0, 400 μM L-methionine in 1× assay buffer), and the mixture was incubated for a further 60 minutes at 25° C. The reaction was halted and the liberated phosphate released by the enzyme in stoichiometric amounts by the production of S-adenosyl methionine (SAM) was measured using the PiColorLock Gold kit (Innova Biosciences, UK). Absolute product amounts were determined by comparison to a standard curve of potassium phosphate buffer, pH 8.0.
As for `Cn1cc2cc(-n3cc4cnc(NC5CCC5)nc4c(-c4ccc(OC(F)F)cc4)c3=O)ccc2n1` [Example 174, 2-(cyclobutylamino)-8-(4-(difluoromethoxy)phenyl)-6-(2-methyl-2H-indazol-5-yl)pyrido[4,3-d]pyrimidin-7(6H)-one], the pIC50 was > 7.00. The result for `COc1ccc(-c2c(=O)n(-c3ccc4ncncc4c3)cc3cnc(NCC(F)(F)F)nc23)cc1` [Example 146, 8-(4-methoxyphenyl)-6-(quinazolin-6-yl)-2-((2,2,2-trifluoroethyl)amino)pyrido[4,3-d]pyrimidin-7(6H)-one] reads 6.00 to 7.00. As for `Cn1cc(-n2cc3cnc(NCC(F)(F)F)nc3c(-c3ccc(Cl)cc3)c2=O)ccc1=O` [Example 140, 8-(4-chlorophenyl)-6-(1-methyl-6-oxo-1,6-dihydropyridin-3-yl)-2-((2,2,2-trifluoroethyl)amino)pyrido[4,3-d]pyrimidin-7(6H)-one], the pIC50 was 6.00 to 7.00. The result for `COc1ccc(-c2c(=O)n(-c3ccncc3)cc3cnc(NCC(F)(F)F)nc23)cc1` [Example 176, 8-(4-methoxyphenyl)-6-(pyridin-4-yl)-2-((2,2,2-trifluoroethyl)amino)pyrido[4,3-d]pyrimidin-7(6H)-one] reads 6.00 to 7.00; that for `Cn1cc2cc(-n3cc4cnc(NCC(F)F)nc4c(-c4ccc(OC(F)F)cc4)c3=O)ccc2n1` [Example 175, 2-((2,2-difluoroethyl)amino)-8-(4-(difluoromethoxy)phenyl)-6-(2-methyl-2H-indazol-5-yl)pyrido[4,3-d]pyrimidin-7(6H)-one], > 7.00; that for `COc1ccc(N2Cc3cnc(NCC(F)(F)F)nc3C3(CCN(Cc4cc[nH]n4)C3)C2=O)cc1` (stereo not shown) [Example 110], 6.00 to 7.00. The result for `COc1ccc(-n2cc3ccc(NCC(F)(F)F)nc3c(-c3ccc(Cl)cc3)c2=O)cc1` [Example 238, 8-(4-chlorophenyl)-6-(4-methoxyphenyl)-2-(2,2,2-trifluoroethylamino)-1,6-naphthyridin-7(6H)-one] reads > 7.00; that for `COc1ccc(-n2cc3cnc(NCC(F)(F)F)nc3c(-c3ccc(OC(F)(F)F)cc3)c2=O)cc1` [Example 196, 6-(4-methoxyphenyl)-2-((2,2,2-trifluoroethyl)amino)-8-(4-(trifluoromethoxy)phenyl)pyrido[4,3-d]pyrimidin-7(6H)-one], > 7.00.

As for `O=c1c(-c2ccc(Cl)cc2)c2nc(NCC(F)(F)F)ncc2cn1-c1ccc2nscc2c1` [Example 125, 6-(benzo[c]isothiazol-5-yl)-8-(4-chlorophenyl)-2-((2,2,2-trifluoroethyl)amino)pyrido[4,3-d]pyrimidin-7(6H)-one], the pIC50 is > 7.00. Under `O=C1N(c2cnoc2)Cc2cnc(NCC3CC3)nc2C12CCN(Cc1n[nH]cc1Cl)C2` (stereo not shown) [Example 108, 1′-((4-chloro-1H-pyrazol-3-yl)methyl)-2-((cyclopropylmethyl)amino)-6-(isoxazol-4-yl)-5H-spiro[pyrido[4,3-d]pyrimidine-8,3′-pyrrolidin]-7(6H)-one] stands 5.00 to 6.00.

Turning to `COc1ccc(N2Cc3cnc(OCC4CC4)nc3C3(CCN(Cc4ccn[nH]4)C3)C2=O)cc1` (stereo not shown) [Example 114, 1′-((1H-pyrazol-3-yl)methyl)-2-(cyclopropylmethoxy)-6-(4-methoxyphenyl)-5H-spiro[pyrido[4,3-d]pyrimidine-8,3′-pyrrolidin]-7(6H)-one], the pIC50 was 6.00 to 7.00. Under `O=c1c(-c2ccc(OC(F)F)cc2)c2nc(OC3CC3)ncc2cn1-c1ccc2ncccc2c1` [Example 273, 2-cyclopropoxy-8-(4-(difluoromethoxy)phenyl)-6-(quinolin-6-yl)pyrido[4,3-d]pyrimidin-7(6H)-one] stands > 7.00; under `Cn1cnc2ccc(-n3cc4cnc(OCC(F)(F)F)nc4c(-c4ccc(OC(F)F)cc4)c3=O)cc21` [Example 263, 8-(4-(difluoromethoxy)phenyl)-6-(1-methyl-1H-benzo[d]imidazol-6-yl)-2-(2,2,2-trifluoroethoxy)pyrido[4,3-d]pyrimidin-7(6H)-one], > 7.00.
